pKi: −log10 of the molar value.
Experiments:
GST-Bcl-XL = GST-Bcl-XL (Homo sapiens, UniProt Q07817); assay: TR-FRET binding assay, GST-Bcl-XL with F-Bak peptide probe; conditions: TR-FRET Binding Affinity, GST-Bcl-XL, F-Bak peptide probe
Experimental: (§1) Tb-anti-GST antibody was purchased from Invitrogen (Catalog No. PV4216).
(§2) Representative compounds were serially diluted in dimethyl sulfoxide (DMSO) starting at 50 μM (2× starting concentration; 10% DMSO) and 10 μL were transferred into a 384-well plate.
(§3) The samples were then mixed on a shaker for 1 minute and incubated for an additional 3 hours at room temperature. For each assay, the probe/antibody and protein/probe/antibody were included on each assay plate as negative and positive controls, respectively. Fluorescence was measured on the ENVISION plate reader (Perkin Elmer) using a 340/35 nm excitation filter and 520/525 (F-Bak peptide) and 495/510 nm (Tb-labeled […] antibody) emission filters.
(§4) The inhibition constant (Ki) is the dissociation constant of an enzyme-inhibitor complex or a protein/small molecule complex, wherein the small molecule is inhibiting binding of one protein to another protein or peptide. […] Inhibition constants were determined using Wang's equation (Wang Z-X., An Exact Mathematical Expression For Describing Competitive Binding Of Two Different Ligands To A Protein Molecule. FEBS Lett. 1995, 360:111-4).

GST-Bcl-2 = GST-Bcl-2 (Homo sapiens, UniProt P10415); assay: TR-FRET binding assay, GST-Bcl-2 with F-Bak peptide probe; conditions: TR-FRET Binding Affinity, GST-Bcl-2, F-Bak peptide probe
Chain of GST-Bcl-2 (P10415 whole entry): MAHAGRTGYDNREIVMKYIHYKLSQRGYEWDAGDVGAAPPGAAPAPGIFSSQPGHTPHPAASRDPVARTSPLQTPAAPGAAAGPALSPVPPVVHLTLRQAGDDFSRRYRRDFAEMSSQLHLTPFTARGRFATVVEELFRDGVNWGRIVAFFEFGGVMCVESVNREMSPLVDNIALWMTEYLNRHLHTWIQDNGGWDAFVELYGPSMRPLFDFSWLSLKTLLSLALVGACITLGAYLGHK
Experimental: as §1, §2, §3, §4

Chain of GST-Bcl-XL (Q07817 whole entry): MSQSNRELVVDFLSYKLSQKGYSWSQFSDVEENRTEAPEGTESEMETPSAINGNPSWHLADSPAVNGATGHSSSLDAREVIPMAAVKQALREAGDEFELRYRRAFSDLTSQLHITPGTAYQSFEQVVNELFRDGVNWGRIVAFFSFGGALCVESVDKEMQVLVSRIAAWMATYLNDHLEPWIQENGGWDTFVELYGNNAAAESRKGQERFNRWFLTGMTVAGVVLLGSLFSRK

SMILES	pKi (GST-Bcl-XL)	pKi (GST-Bcl-2)
O=C(NS(=O)(=O)c1ccccc1OCCN1CCCCC1)c1ccc(N2CCN(Cc3ccccc3-c3ccc(Cl)cc3)CC2)cc1Oc1ccccc1 [Example 32, 4-{4-[(4′-chloro-1,1′-biphenyl-2-yl)methyl]piperazin-1-yl}-2-phenoxy-N-{[2-(2-piperidin-1-ylethoxy)phenyl]sulfonyl}benzamide]	< 6.18	7.21
CCN1CCCC1CNC(=O)c1cc(S(=O)(=O)NC(=O)c2ccc(N3CCN(Cc4ccccc4-c4ccc(Cl)cc4)CC3)cc2Oc2ccccc2)ccc1OC (stereo not shown) [Example 33, 4-{4-[(4′-chloro-1,1′-biphenyl-2-yl)methyl]piperazin-1-yl}-N-{[3-({[(1-ethylpyrrolidin-2-yl)methyl]amino}carbonyl)-4-methoxyphenyl]sulfonyl}-2-phenoxybenzamide]	6.48	8.17
O=C(NS(=O)(=O)c1ccc(NCC2CCOCC2)c([N+](=O)[O-])c1)c1ccc(N2CCN(Cc3ccccc3-c3ccc(Cl)cc3)CC2)cc1Oc1cccc2ccccc12 [Example 34, 4-{4-[(4′-chloro-1,1′-biphenyl-2-yl)methyl]piperazin-1-yl}-2-(1-naphthyloxy)-N-({3-nitro-4-[(tetrahydro-2H-pyran-4-ylmethyl)amino]phenyl}sulfonyl)benzamide]	7.06	8.70
O=C(NS(=O)(=O)c1ccc(NCCCN2CCOCC2)c([N+](=O)[O-])c1)c1ccc(N2CCN(Cc3ccccc3-c3ccc(Cl)cc3)CC2)cc1Oc1ccc2ccccc2c1 [Example 36, 4-{4-[(4′-chloro-1,1′-biphenyl-2-yl)methyl]piperazin-1-yl}-N-({4-[(3-morpholin-4-ylpropyl)amino]-3-nitrophenyl}sulfonyl)-2-(2-naphthyloxy)benzamide]	8.05	9.10
O=C(NS(=O)(=O)c1ccc(NCC2CCOCC2)c(S(=O)(=O)C(F)(F)F)c1)c1ccc(N2CCN(Cc3ccccc3-c3ccc(Cl)cc3)CC2)cc1Oc1ccc2ccccc2c1 [Example 37, 4-{4-[(4′-chloro-1,1′-biphenyl-2-yl)methyl]piperazin-1-yl}-2-(2-naphthyloxy)-N-({4-[(tetrahydro-2H-pyran-4-ylmethyl)amino]-3-[(trifluoromethyl)sulfonyl]phenyl}sulfonyl)benzamide]	7.35	9.33
CN(C)CCCNc1ccc(S(=O)(=O)NC(=O)c2ccc(N3CCN(Cc4ccccc4-c4ccc(Cl)cc4)CC3)cc2Oc2cccc3cnccc23)cc1[N+](=O)[O-] [Example 42, 4-{4-[(4′-chloro-1,1′-biphenyl-2-yl)methyl]piperazin-1-yl}-N-[(4-{[3-(dimethylamino)propyl]amino}-3-nitrophenyl)sulfonyl]-2-(isoquinolin-5-yloxy)benzamide]	8.42	10.32
CN(C)CCCNc1ccc(S(=O)(=O)NC(=O)c2ccc(N3CCN(Cc4ccccc4-c4ccc(Cl)cc4)CC3)cc2Oc2ccc3cc[nH]c3c2)cc1[N+](=O)[O-] [Example 47, 4-{4-[(4′-chloro-1,1′-biphenyl-2-yl)methyl]piperazin-1-yl}-N-[(4-{[3-(dimethylamino)propyl]amino}-3-nitrophenyl)sulfonyl]-2-(1H-indol-6-yloxy)benzamide]	6.98	8.18
CC1(C)CCC(c2ccc(Cl)cc2)=C(CN2CCN(c3ccc(C(=O)NS(=O)(=O)c4ccc(NCCCN5CCOCC5)c([N+](=O)[O-])c4)c(Oc4ccc5[nH]ccc5c4)c3)CC2)C1 [Example 50, 4-(4-{[2-(4-chlorophenyl)-5,5-dimethylcyclohex-1-en-1-yl]methyl}piperazin-1-yl)-2-(1H-indol-5-yloxy)-N-({4-[(3-morpholin-4-ylpropyl)amino]-3-nitrophenyl}sulfonyl)benzamide]	7.05	9.33
CN(C)CCCNc1ccc(S(=O)(=O)NC(=O)c2ccc(N3CCN(CC4=C(c5ccc(Cl)cc5)CCC(C)(C)C4)CC3)cc2Oc2ccc3[nH]ccc3c2)cc1[N+](=O)[O-] [Example 51, 4-(4-{[2-(4-chlorophenyl)-5,5-dimethylcyclohex-1-en-1-yl]methyl}piperazin-1-yl)-N-[(4-{[3-(dimethylamino)propyl]amino}-3-nitrophenyl)sulfonyl]-2-(1H-indol-5-yloxy)benzamide]	7.81	9.60
O=C(NS(=O)(=O)c1ccc(NCCCN2CCOCC2)c([N+](=O)[O-])c1)c1ccc(N2CCN(Cc3ccccc3-c3ccc(Cl)cc3)CC2)cc1Oc1cccc2[nH]ccc12 [Example 58, 4-{4-[(4′-chloro-1,1′-biphenyl-2-yl)methyl]piperazin-1-yl}-2-(1H-indol-4-yloxy)-N-({4-[(3-morpholin-4-ylpropyl)amino]-3-nitrophenyl}sulfonyl)benzamide]	6.54	8.96
COc1ccc(S(=O)(=O)NC(=O)c2ccc(N3CCN(Cc4ccccc4-c4ccc(Cl)cc4)CC3)cc2Oc2ccccc2)cc1 [Example 60, 4-{4-[(4′-chloro-1,1′-biphenyl-2-yl)methyl]piperazin-1-yl}-N-[(4-methoxyphenyl)sulfonyl]-2-phenoxybenzamide]	< 6.18	7.72
Cc1ccc(S(=O)(=O)NC(=O)c2ccc(N3CCN(Cc4ccccc4-c4ccc(Cl)cc4)CC3)cc2Oc2ccccc2)cc1 [Example 61, 4-{4-[(4′-chloro-1,1′-biphenyl-2-yl)methyl]piperazin-1-yl}-N-[(4-methylphenyl)sulfonyl]-2-phenoxybenzamide]	< 6.18	7.28
O=C(NS(=O)(=O)c1ccc(NCC2CCOCC2)c(S(=O)(=O)C(F)(F)F)c1)c1ccc(N2CCN(Cc3ccccc3-c3ccc(Cl)cc3)CC2)cc1Oc1ccc2[nH]ccc2c1 [Example 62, 4-{4-[(4′-chloro-1,1′-biphenyl-2-yl)methyl]piperazin-1-yl}-2-(1H-indol-5-yloxy)-N-({4-[(tetrahydro-2H-pyran-4-ylmethyl)amino]-3-[(trifluoromethyl)sulfonyl]phenyl}sulfonyl)benzamide]	6.24	8.45
CN(C)CCCNc1ccc(S(=O)(=O)NC(=O)c2ccc(N3CCN(Cc4ccccc4-c4ccc(Cl)cc4)CC3)cc2Oc2ccc3[nH]ccc3c2)cc1S(=O)(=O)C(F)(F)F [Example 64, 4-{4-[(4′-chloro-1,1′-biphenyl-2-yl)methyl]piperazin-1-yl}-N-({4-{[3-(dimethylamino)propyl]amino}-3-[(trifluoromethyl)sulfonyl]phenyl}sulfonyl)-2-(1H-indol-5-yloxy)benzamide]	7.39	9.28
O=C(NS(=O)(=O)c1ccc(NCCCN2CCOCC2)c(S(=O)(=O)C(F)(F)F)c1)c1ccc(N2CCN(Cc3ccccc3-c3ccc(Cl)cc3)CC2)cc1Oc1cccc2[nH]ccc12 [Example 65, 4-{4-[(4′-chloro-1,1′-biphenyl-2-yl)methyl]piperazin-1-yl}-2-(1H-indol-4-yloxy)-N-({4-[(3-morpholin-4-ylpropyl)amino]-3-[(trifluoromethyl)sulfonyl]phenyl}sulfonyl)benzamide]	7.66	8.34
CN(C)CCCNc1ccc(S(=O)(=O)NC(=O)c2ccc(N3CCN(CC4=C(c5ccc(Cl)cc5)CC(C)(C)CC4)CC3)cc2Oc2ccc3[nH]ccc3c2)cc1S(=O)(=O)C(F)(F)Cl [Example 67, N-[(3-{[chloro(difluoro)methyl]sulfonyl}-4-{[3-(dimethylamino)propyl]amino}phenyl)sulfonyl]-4-(4-{[2-(4-chlorophenyl)-4,4-dimethylcyclohex-1-en-1-yl]methyl}piperazin-1-yl)-2-(1H-indol-5-yloxy)benzamide]	< 6.18	6.54
O=C(NS(=O)(=O)c1ccc(NCCCN2CCOCC2)cc1)c1ccc(N2CCN(Cc3ccccc3-c3ccc(Cl)cc3)CC2)cc1Oc1ccccc1 [Example 78, 4-{4-[(4′-chloro-1,1′-biphenyl-2-yl)methyl]piperazin-1-yl}-N-({4-[(3-morpholin-4-ylpropyl)amino]phenyl}sulfonyl)-2-phenoxybenzamide]	< 6.18	6.95
O=C(NS(=O)(=O)c1ccc(NCC2CCOCC2)c([N+](=O)[O-])c1)c1ccc(N2CCN(Cc3ccccc3-c3ccc(Cl)cc3)CC2)cc1Oc1cccnc1 [Example 79, 4-{4-[(4′-chloro-1,1′-biphenyl-2-yl)methyl]piperazin-1-yl}-N-({3-nitro-4-[(tetrahydro-2H-pyran-4-ylmethyl)amino]phenyl}sulfonyl)-2-(pyridin-3-yloxy)benzamide]	7.01	8.69
CN1CCN(CCNc2ccc(S(=O)(=O)NC(=O)c3ccc(N4CCN(Cc5ccccc5-c5ccc(Cl)cc5)CC4)cc3Oc3ccccc3)cc2[N+](=O)[O-])CC1 [Example 85, 4-{4-[(4′-chloro-1,1′-biphenyl-2-yl)methyl]piperazin-1-yl}-N-[(4-{[2-(4-methylpiperazin-1-yl)ethyl]amino}-3-nitrophenyl)sulfonyl]-2-phenoxybenzamide]	7.94	9.63
CN(C)CCCN(C)c1ccc(S(=O)(=O)NC(=O)c2ccc(N3CCN(Cc4ccccc4-c4ccc(Cl)cc4)CC3)cc2Oc2ccccc2)cc1[N+](=O)[O-] [Example 87, 4-{4-[(4′-chloro-1,1′-biphenyl-2-yl)methyl]piperazin-1-yl}-N-({4-[[3-(dimethylamino)propyl](methyl)amino]-3-nitrophenyl}sulfonyl)-2-phenoxybenzamide]	6.39	9.12
